Results taken from article PMC11638703 (RSC Advances, 2024).
Read-outs that look alike come from different tables or passages of the source.

Assays:
[1] = test system: MCF-7 cells; experiment: Cytotoxicity, MTT assay, MCF-7 cells; type: cell-based, human; settings: from MCF-7 IC50
[2] = test system: HepG2 cells; experiment: Cytotoxicity, MTT assay, HepG2 cells; type: cell-based; settings: for LLE (lipophilic efficiency): from HepG2 IC50
[3] = target: T1, PIM-1 kinase (Homo sapiens, UniProt P11309); experiment: PIM-1 kinase inhibitory assay; type: biochemical
T1 sequence (P11309 whole entry): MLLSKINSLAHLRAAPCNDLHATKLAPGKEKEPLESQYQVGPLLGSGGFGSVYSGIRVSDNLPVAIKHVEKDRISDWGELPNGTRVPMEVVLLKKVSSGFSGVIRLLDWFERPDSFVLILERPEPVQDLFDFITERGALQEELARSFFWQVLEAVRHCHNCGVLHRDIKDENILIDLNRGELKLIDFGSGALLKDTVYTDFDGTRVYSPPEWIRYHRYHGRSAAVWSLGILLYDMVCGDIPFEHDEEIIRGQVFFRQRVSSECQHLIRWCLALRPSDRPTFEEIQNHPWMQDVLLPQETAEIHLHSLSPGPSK

[4] = test system: THLE2 cells; experiment: Cytotoxicity, MTT assay, normal THLE2 cells; type: cell-based
[5] = test system: caspase 3; experiment: Caspase 3 level by ELISA in treated HepG2 cells; type: cell-based, human; settings: HepG2 treated at IC50 dose, 48 h, control 4.01
[6] = test system: caspase 8; experiment: Caspase 8 level by ELISA in treated HepG2 cells; type: cell-based, human; settings: HepG2 treated at IC50 dose, 48 h, control 55.01
[7] = test system: caspase 9; experiment: Caspase 9 level by ELISA in treated HepG2 cells; type: cell-based, human; settings: HepG2 treated at IC50 dose
[8] = test system: HepG2 cells; experiment: Annexin V/PI staining flow cytometry; type: cell-based; settings: HepG2, IC50 dose, 48 h
[9] = target: T1, PIM-1 kinase; settings: previously synthesized compound; ref [40]; cited from earlier work

% of PIM-1 inhibition [3] [%] | IC50 [3] [µM] | Structure (SMILES) | LLE (lipophilic efficiency) [1] | LLE (lipophilic efficiency) [2] | other results
83.4 ± 2.3 | 0.0646 ± 0.0002 | CCOC(=O)Cn1c(-c2ccc(Cl)cc2)cc(-c2ccc(O)c(OC)c2)c(C#N)c1=O [Compound 5, Ethyl 2-(6-(4-chlorophenyl)-3-cyano-4-(4-hydroxy-3-methoxyphenyl)-2-oxopyridin-1(2H)-yl)acetate] | 2.65 | 2.93 | 
 |  | COc1cc(-c2cc(-c3ccc(Cl)cc3)n(CN(C)C)c(=O)c2C#N)ccc1O [Compound 8, 6-(4-Chlorophenyl)-1-((dimethylamino)methyl)-4-(4-hydroxy-3-methoxyphenyl)-2-oxo-1,2-dihydropyridine-3-carbonitrile] | 2.97 | 2.76 | 
87.6 ± 3.2 | 0.0346 ± 0.00012 | COc1cc(-c2cc(-c3ccc(Cl)cc3)n(CC(=O)n3nc(C)cc3C)c(=O)c2C#N)ccc1O [Compound 10, 6-(4-Chlorophenyl)-1-(2-(3,5-dimethyl-1H-pyrazol-1-yl)-2-oxoethyl)-4-(4-hydroxy-3-methoxyphenyl)-2-oxo-1,2-dihydropyridine-3-carbonitrile] |  |  | 
 |  | N#Cc1cnc2ncncc2c1 [Pyrido[2,3-d] pyrimidine-6-carbonitrile] |  |  | % of PIM-1 inhibition [9]: 97.8 ± 1.8%

Structure (SMILES) | % of PIM-1 inhibition [3] [%] | IC50 [3] [µM] | LLE (lipophilic efficiency) [1] | LLE (lipophilic efficiency) [2] | other results
COc1cc(-c2cc(-c3ccc(Cl)cc3)n(CC(=O)NN)c(=O)c2C#N)ccc1O [Compound 9, 2-(6-(4-Chlorophenyl)-3-cyano-4-(4-hydroxy-3-methoxyphenyl)-2-oxopyridin-1(2H)-yl)acetohydrazide] | 98.8 ± 1.9 | 0.0084 ± 0.0002 | 5.41 | 5.60 | percentage of cell growth (inhibition) ([2]; HepG2, maximal concentration): 94%; maximum cell growth inhibition [4]: 13%; Concentration Caspase 3 [5]: 9.8 ng/mL; Concentration Caspase 8 [6]: 74.4 ng/mL; selectivity for caspase-9 compared to caspase-3 and caspase-8 [7]: ~2.6 fold; Concentration Caspase 9 ([7]; 48 h, ELISA, control 43.33): 112.6 ng/mL; early apoptosis [8]: 15.2%; late apoptosis [8]: 37.5%; necrosis cell death [8]: failed to enhance necrosis cell death; total apoptotic cell death vs untreated control [8]: 175 times; total apoptosis ([8]; untreated 0.30%): 52.7%
